Read-outs that look alike come from different tables or passages of the source.
Experiments:
[1] = tested on: HIV (HTLV-IIIB strain); experiment: MTT assay, MT-4 cells infected with HIV; assay type: cell-based; conditions: 5 days, inhibits 50% of cell damage caused by virus
Procedure: The inhibitory effects of each anti-human immunodeficiency virus active substance against human immunodeficiency virus have been determined by MTT assay described below.
(1) Human T cell strain Molt-4 clone 8 persistently infected HIV (HTLV-IIIB strain) was cultivated in RPMI-1640 medium supplemented with 10% fatal bovine serum, and supernatant was filtered, measured RT activity, and stored at −80° C. On the other hand, each human anti-immunodeficiency virus active substance was diluted to fixed concentration in culture medium, they were plated to 96-well microtiter plate. Subsequently, 100 μL (3.5×10^4 cells) of MT-4 cell suspension was plated to 96-well microtiter plate, and then above mentioned supernatant containing HIV, which was diluted by culture medium, was added 50 μL (60 pfu (plaque forming unit.)) to 96-well microtiter plate.
(2) After cultivation at 37° C. for 5 days in CO2 incubator, into all well was added 30 μL per well 3-(4,5-[…])-2,5-diphenyltetrazolium bromide (MTT) 5 mg/mL) and PBS, and then incubated for 1 h.
In this time, alive cells reduced MTT and formazan was precipitated, therefore, 150 μL of cell supernatants were removed from all wells, and then 150 μL of lysate (10% triton X-100 and 0.4% (v/v) HCl-containing isopropanol) was added, and formazan was eluated on a plate shaker.

[2] = molecular target: HIV-1 integrase (Human immunodeficiency virus type 1 group M subtype B, UniProt P12497); experiment: HIV-1 integrase inhibition assay (microtiter plate, substrate/target DNA)
Procedure: Substrate DNA and target DNA, which sequences were indicated below, were synthesized by Amersham Pharmacia Biotech and dissolved in KTE buffer (composition: 100 mM KCl, 1 mM EDTA, 10 mM Tris-HCl (pH 7.6)) at concentration of 2 pmol/μL and 5 pmol/μL, respectively. The DNA solutions were annealed with each complement by slowly cooling after heating.
(2) Calculations of the percent inhibitions (the IC50 values of test compounds)
Streptavidin, obtained from Vector Laboratories, was dissolved in 0.1 M carbonate buffer (composition: 90 mM Na2CO3, 10 mM NaHCO3) at concentration of 40 μg/mL. After coating each well of microtiter plates (obtained from NUNC) with 50 μL of the above solution at 4° C. over night, each well was washed twice with PBS (composition: 13.7 mM NaCl, 0.27 mM KCl, 0.43 mM Na2HPO4, 0.14 mM KH2PO4) and blocked with 300 μL of 1% skim milk in PBS for 30 min. Additionally, each well was washed twice with PBS and added 50 μL of substrate DNA solution (2 pmol/μL). The microtiter plates were kept at room temperature for 30 min. Then, each well was washed twice with PBS and once with H2O.
Subsequently, in the each well prepared above were added 45 μL of the reaction buffer prepared from 12 μL of the buffer (composition: 150 mM MOPS (pH 7.2), 75 mM MnCl2, 50 mM 2-mercaptoethanol, 25% glycerol, 500 μg/mL bovine serum albumin-fraction V), 1 μL of target DNA (5 pmol/μL), and 32 μL of the distilled water. Additionally, 6 μL of either a test compound in DMSO or DMSO for positive control(PC) was mixed with the above reaction buffer, then 9 μL of an integrase solution (30 pmol) was added and mixed well. In the well of negative control (NC) was added 9 μL of the integrase dilution buffer (composition: 20 mM MOPS (pH7.2), 400 mM potassium glutamate, 1 mM EDTA, 0.1% NP-40, 20% glycerol, 1 mM DTT, 4M urea).
The microtiter plates were incubated at 30° C. for 1 hour. The reaction solution was removed and each well was washed twice with PBS. Subsequently, each well of the microtiter plates was filled with 100 μL of anti-digoxigenin antibody labeled with alkaline phosphatase (Sheep Fab fragment: obtained from Boehringer) and incubated at 30° C. for 1 hour. Then, each well was washed twice with 0.05% Tween20 in PBS and once with PBS. Next, 150 μL of the Alkaline phosphatase reaction buffer (composition: 10 mM p-Nitrophenylphosphate (obtained from Vector Laboratories), 5 mM MgCl2, 100 mM NaCl, 100 mM Tris-HCl (pH 9.5))was added in each well. […] The optical density (OD) at 405 nm of each well was measured and the percent inhibition was determined by the following expression.
The percent inhibition (%)=100[1-{(C abs.−NC abs.)/(PC abs.−NC abs.)}]
C abs.; the OD of the well of the compounds
NC abs.: the OD of the negative control (NC)
PC abs.: the OD of the positive control (PC)
IC50(μg/mL)=x-{(X-50)(x-y)/(X-Y)}

[3] = Human immunodeficiency virus 1, MT4, 120 h, read-out: EC50

Compound	EC50 [1] [µg/mL]	EC50 [1, 3] [µg/mL]	melting point [°C]	IC50 [2] [nM]
5-[(:3,5-dichlorophenyl)thio]-4-(1-methylethyl)-1-(4-pyridynylmethyl)-1H-imidazole-2-methanol carbamate [Capravirine]	0.0014			
Cc1c(O)cccc1C(=O)N[C@@H](CSc1ccccc1)[C@H](O)CN1C[C@H]2CCCC[C@H]2C[C@H]1C(=O)NC(C)(C)C (relative stereo) [Nelfinavir, [3S-[2(2S*,3S*),3α,4aβ,8aβ]]-N-(1,1-dimethylethyl)-decahydro-2-[2-hydroxy-3-[(3-hydroxy-2-methylbenzoyl)amino]-4-(phenylthio)butyl]-3-isoquinolinecarboxamide]		0.01		
CC(C)c1nc(CN(C)C(=O)N[C@H](C(=O)N[C@@H](Cc2ccccc2)C[C@H](O)[C@H](Cc2ccccc2)NC(=O)OCc2cncs2)C(C)C)cs1 (relative stereo) [Ritonavir, [5S-(5R*,8R*,10R*,11R*)]-10-hydroxy-2-methyl-5-(1-methylethyl)-1-[2-(1-methylethyl)-4-thiazolyl]-3,6-dioxo-8,10-bis(phenylmethyl)-2,4,7,12-tetraazatridecane-13-hydroxy acid 5-thiazolylmethyl ester]		0.026		
Nc1nc(NC2CC2)c2ncn([C@H]3C=C[C@@H](CO)C3)c2n1 [Abacavir]		0.63		
O=C(C=C(O)c1nn[nH]n1)c1ccc(Cc2ccc(F)cc2)o1 [Compound I-3, 1-[5-(4-Fluorobenzyl)furan-2-yl]-3-hydroxy-3-(2H-tetrazol-5-yl)propenone]			121 to 123	1270
O=C(C=C(O)c1nn[nH]n1)c1occc1Cc1ccc(F)cc1 [Compound I-11, 1-[3-(4-Fluorobenzyl)furan-2-yl]-3-hydroxy-3-(2H-tetrazol-5-yl)propenone]			171 to 174	1340
O=C(C=C(O)c1nc[nH]n1)c1occc1Cc1ccc(F)cc1 [Compound I-12, 1-[3-(4-Fluorobenzyl)furan-2-yl]-3-hydroxy-3-(1H-1,2,4-triazol-3-yl)propenone]			221 to 223	1370
CCCn1cc(Cc2ccc(F)cc2)c(C(=O)C=C(O)c2nc[nH]n2)c1 [Compound I-17, 1-[[4-(4-Fluorobenzyl)-1-propyl]pyrrol-3-yl]-3-hydroxy-3-(1H-1,2,4-triazol-3-yl)propenone]			210 to 211	4510
O=C(C=C(O)c1nc[nH]n1)c1c[nH]cc1Cc1ccc(F)cc1 [Compound I-19, 1-[4-(4-fluorobenzyl)pyrrol-3-yl]-3-hydroxy-3-(1H-1,2,4-triazol-3-yl)propenone]			210 to 213	2020
O=C(C=C(O)c1nn[nH]n1)c1ccoc1Cc1ccc(F)cc1 [Compound I-20, 1-[2-(4-Fluorobenzyl)furan-3-yl]-3-hydroxy-3-(2H-tetrazol-5-yl)propenone]			150 to 153	1020
O=C(C=C(O)c1nn[nH]n1)c1cn(S(=O)(=O)c2ccccc2)cc1CCc1ccccc1 [Compound I-21, 1-[[1-Benzenesulfonyl-4-(2-phenylethyl)]pyrrol-3-yl]-3-hydroxy-3-(2H-tetrazol-5-yl)propenone]			178 to 181	1200
O=C(C=C(O)c1nn[nH]n1)c1c[nH]cc1CCc1ccccc1 [Compound I-22, 3-Hydroxy-1-[(4-(2-phenylethyl))pyrrol-3-yl]-3-(2H-tetrazol-5-yl)propenone]			228 to 230	1910
O=C(C=C(O)c1nc[nH]n1)c1ccoc1Cc1ccc(F)cc1 [Compound I-25, 1-[2-(4-Fluorobenzyl)furan-3-yl]-3-hydroxy-3-(1H-1,2,4-triazol-3-yl)propenone]			144 to 147	1530
O=C(C=C(O)c1nc[nH]n1)c1cc(C(=O)O)n(Cc2ccccc2)c1 [Compound I-29, 1-[(1-Benzyl-5-carboxy)pyrrol-3-yl]-3-hydroxy-3-(1H-1,2,4-triazol-3-yl)propenone]			264 to 265	2960
O=C(C=C(O)c1ccccn1)c1ccc(Cc2ccc(F)cc2)o1 [Compound I-46, 1-[5-(4-Fluorobenzyl)furan-2-yl]-3-hydroxy-3-(pyridin-2-yl)propenone]			84 to 85	1360
O=C(C=C(O)c1ncccn1)c1ccc(Cc2ccc(F)cc2)o1 [Compound I-47, 1-[5-(4-Fluorobenzyl)furan-2-yl]-3-hydroxy-3-(pyrimidin-2-yl)propenone]				1080
O=C(C=C(O)c1ccccn1)c1cnc(Cc2ccc(F)cc2)o1 [Compound I-50, 1-[2-(4-Fluorobenzyl)oxazol-5-yl]-3-hydroxy-3-(pyridin-2-yl)propenone]			108 to 109	1230
O=C(C=C(O)c1ncccn1)c1cnc(Cc2ccc(F)cc2)o1 [Compound I-51, 1-[2-(4-Fluorobenzyl)oxazol-5-yl]-3-hydroxy-3-(pyrimidin-2-yl)propenone]			97 to 100	1480
CC(C)Nc1cccnc1N1CCN(C(=O)c2cc3cc(NS(C)(=O)=O)ccc3[nH]2)CC1 [Delavirdine, 1-[5-methanesulfonamideindolyl-2-carbonyl]-4-[3-(1-methylethylamino)-2-pyridyl]piperadine]		0.012		
O=c1[nH]cnc2c1ncn2C1CCC(CO)O1 (stereo not shown) [Didanosine, 2′,3′-dideoxyinosine]		0.64		
O=C1Nc2ccc(Cl)cc2C(C#CC2CC2)(C(F)(F)F)O1 [Efavirenz, (S)-(−)-6-chloro-4-(chloropropylethynyl)-1,4-dihydro-4-(trifluoromethyl)-2H-3,1-benzoxazin-2-one]		0.00058		
CCOCn1c(Cc2ccccc2)c(C(C)C)c(=O)[nH]c1=O [Emivirine, 6-benzyl-1-(ethoxymethyl)-5-isopropyluracil]		0.0045		
CC(C)(C)NC(=O)[C@@H]1CN(Cc2cccnc2)CCN1CC(O)C[C@@H](Cc1ccccc1)C(=O)N[C@H]1c2ccccc2C[C@H]1O (stereo partly drawn) [Indinavir, [1(1S,2R),5(s)]-2,3,5-trideoxy-N-(2,3-dihydro-2-hydroxy-1H-inden-1-yl)-5-[2-{[(1,1-dimethylethyl)amino]carbonyl}-4-(3-pyridinylmethyl)-1-piperadinyl]-2-(phenylmethyl)-D-erythro-pentonamide]		0.014		
Cc1ccnc2c1NC(=O)c1cccnc1N2C1CC1 [Nevirapine]		0.02		
CC(C)(C)NC(=O)[C@@H]1C[C@@H]2CCCC[C@@H]2CN1C[C@@H](O)[C@H](Cc1ccccc1)NC(=O)[C@H](CC(N)=O)NC(=O)c1ccc2ccccc2n1 [Saquinavir, N-tert-butyl-decahydro-2-[2(R)-hydroxy-4-phenyl-3(S)-{[N-(2-quinolylcarbony)-L-asparginyl]amino}butyl]-(4aS,8aS)-isoquinoline-3(S)-carboxamide]		0.0037		
Nc1ccn([C@H]2CC[C@@H](CO)O2)c(=O)n1 [Zalcitabine, 2′,3′-dideoxycytidine]		0.017		
(±)-α-[(2-acetyl-5-methylphenyl)amino]-2,6-dichlorobenzeneacetomide [Loviride]	0.011			
